The test has as its system 299254-011-R-J1-PDC complex spheroid viability. In words: Anticancer human tumor 299254-011-R-J1-PDC patient-derived melanoma cell line growth inhibition [POLQ]. Particulars: for viability, T/C: stronger effect = lower value. The method, then:
Multicellular complex tumor spheroid response to Polymerase (POL) inhibitors (novobiocin, ART-558, RP6685) in combination with a variety of drugs and investigational agents in selected tumor cell lines
The POL inhibitors (novobiocin, ART-558, and RP6685) were evaluated both individually and in combination with standard of care and investigational anticancer small molecules within a complex spheroid model of solid tumors. . Complex spheroids include a stromal component modeled by human endothelial cells (HUVEC) and fibroblasts modeled by human mesenchymal stem cells (MSCs). The concentration ranges selected for each drug and investigational agent were based upon clinically achievable concentrations if the clinical Cmax of the agent was known.
Compounds. The drugs and investigational agents: novobiocin (NSC847541), ART-558 (NSC835418), RP-6685 (NSC848927), peposertib (NSC802822), ceralasertib (NSC780249), elimusertib (NSC800525), camonsertib (NSC841442), AZD-1390 (NSC803789), olaparib (NSC753686), talazoparib (NSC767125), rucaparib (NSC756644), sotorasib (NSC818433), MRTX-1133 (NSC836407), SN-38 (NSC673596), topotecan (NSC609699), epotoside (NSC141540), doxorubicin (NSC123127), gemcitabine (NSC613327), 5-fluorouracil (NSC19893), paclitaxel (NSC125973), vemurafenib (NSC761431), MSA-2 (NSC828583), SN-011 (NSC837082), adavosertib (NSC754352), prexasertib (NSC758257), carboplatin (NSC241240) and oxaliplatin (NSC266046), were obtained from the National Cancer Institute (NCI) Developmental Therapeutics Program Chemical Repository (21). The FDA-approved anticancer drug set is available from the Developmental Therapeutics Program at https://dtp.cancer.gov/organization/dscb/obtaining/. […] The stock solutions were prepared in dimethyl sulfoxide (DMSO, Sigma-Aldrich, St. Louis, MO, cat. D2650), except for the platinum compounds which were prepared in saline (Quality Biological, Gaithersburg, MD, cat. 114-055-101), at 800-fold the tested concentration and stored at -70 degrees C prior to their use. All drugs and investigational agents were tested over a range starting from a high concentration at or near the clinical Cmax and decreasing in half-log increments. If the clinical Cmax for an agent had not been determined, the highest concentration tested was 10 microM, except for SN-38, which was tested at a high concentration of 1 microM.
Cell Culture. All cells were maintained in an incubator at 37 degrees C and 5% CO2 with 95% humidity. The PDC lines were cultured according to standard operating procedures established by the NCI PDMR (https://pdmr.cancer.gov). Table 3 of the manuscript, lists the cell lines along with the number of the three cell types plated to form the mct-spheroids and media for tumor cell growth. After thawing, all PDC lines, except 997537-175-T-J1-PDC and 415267-285-R-J2-PDC, were cultured in Matrigel-coated flasks prepared with a working solution of 1X Ham's F-12 nutrient mix, without supplementation (Thermo Fisher Scientific, cat. 11765054), 100 U/mL penicillin-streptomycin (Thermo Fisher Scientific, cat. 15140122), and 2.5% Matrigel (Corning Inc., Corning, NY, cat. 354248) for the first three passages. The two PDC lines 997537-175-T-J1-PDC and 415267-285-R-J2-PDC were cultured on uncoated flasks. The 857933-349-R-J2-PDC line was cultured in 6C/Colon 1B media containing advanced DMEM/F-12 (Thermo Fisher Scientific, cat. 12634028), 10 mM HEPES (Thermo Fisher Scientific, cat. 15630080), 1X GlutaMAX supplement (Thermo Fisher Scientific, cat. 35050061), 0.1 mg/mL primocin (InvivoGen, San Diego, CA, cat. ant-pm-2), 10% defined fetal bovine serum, heat inactivated (HyClone Laboratories Inc., Logan, UT, cat. SH30070.03HI), 50% L-WRN conditioned media (ATCC, cat. CRL-3276), 1.25 mM N-Acetyl-L-cysteine (Sigma-Aldrich, cat. A9165), 10 mM nicotinamide (Sigma-Aldrich, cat. N0636), 1X B-27 supplement (Thermo Fisher Scientific, cat. 17504044), 1X N-2 supplement (Thermo Fisher Scientific, cat. […]

pIC50: −log10 of the molar value. “And” between values parts separate entries of the source, which are not always exact repeats. Equal entries are not always repeated. Where only a bound is given, the exact number is not on record here.
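Note: spheroids exposed to drugs for one week before measurement.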
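Throughout, for viability, T/C: percent viability relative to DMSO vehicle control taken as 100%.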

Take `CC(C)n1c(=O)n(C)c2cnc3cc(F)c(-c4ccc(OCCCN5CCCCC5)nc4)cc3c21` + COC1C(OC(N)=O)C(O)C(Oc2ccc3c(O)c(NC(=O)c4ccc(O)c(CC=C(C)C)c4)c(=O)oc3c2C)OC1(C)C: the negative-log IC50 (pIC50) by setting is: (curve of first compound, second compound 0.0316 µM) less than 5.00; (curve of first compound, second compound 0.1 µM) less than 5.00; (curve of first compound, second compound 0.316 µM) less than 5.00; (curve of first compound, second compound 1 µM) less than 5.00; (curve of first compound, second compound 3.16 µM) less than 5.00; (curve of first compound, second compound 10 µM) less than 5.00. Moreover, the viability, T/C by setting is: (second compound 0.0316 µM, first compound 0.0316 µM) 145%; (second compound 0.0316 µM, first compound 0.1 µM) 129%; (second compound 0.0316 µM, first compound 0.316 µM) 109%; (second compound 0.0316 µM, first compound 1 µM) 126%; (second compound 0.0316 µM, first compound 3.16 µM) 112%; (second compound 0.0316 µM, first compound 10 µM) 111%. Besides, the viability, T/C runs as follows: (second compound 0.1 µM, first compound 0.0316 µM) 113%; (second compound 0.1 µM, first compound 0.1 µM) 127%; (second compound 0.1 µM, first compound 0.316 µM) 128%; (second compound 0.1 µM, first compound 1 µM) 131%; (second compound 0.1 µM, first compound 3.16 µM) 112%; (second compound 0.1 µM, first compound 10 µM) 91.2%. For the same compound, the viability, T/C is, setting by setting: (second compound 0.316 µM, first compound 0.0316 µM) 121%; (second compound 0.316 µM, first compound 0.1 µM) 147%; (second compound 0.316 µM, first compound 0.316 µM) 117%; (second compound 0.316 µM, first compound 1 µM) 121%; (second compound 0.316 µM, first compound 3.16 µM) 114%; (second compound 0.316 µM, first compound 10 µM) 110%. For the same compound, the viability, T/C was 113% (second compound 1 µM, first compound 0.0316 µM); 111% (second compound 1 µM, first compound 0.1 µM); 132% (second compound 1 µM, first compound 0.316 µM); 107% (second compound 1 µM, first compound 1 µM); 112% (second compound 1 µM, first compound 3.16 µM); 82.9% (second compound 1 µM, first compound 10 µM). The viability, T/C by setting is: (second compound 3.16 µM, first compound 0.0316 µM) 112%; (second compound 3.16 µM, first compound 0.1 µM) 130%; (second compound 3.16 µM, first compound 0.316 µM) 116%; (second compound 3.16 µM, first compound 1 µM) 118%; (second compound 3.16 µM, first compound 3.16 µM) 123%; (second compound 3.16 µM, first compound 10 µM) 102%. Besides, the viability, T/C is 126% (second compound 10 µM, first compound 0.0316 µM); 128% (second compound 10 µM, first compound 0.1 µM); 139% (second compound 10 µM, first compound 0.316 µM); 128% (second compound 10 µM, first compound 1 µM); 135% (second compound 10 µM, first compound 3.16 µM); 115% (second compound 10 µM, first compound 10 µM).
On to `COc1ccc([C@@H](O)c2cc(-c3ncnc4cc(N5CCOCC5)ccc34)c(F)cc2Cl)nn1`, for which the viability, T/C (compound 0.0316 µM) is 106% and 102% and 92.9%; the viability, T/C (compound 0.1 µM) is 86.3% and 91.9% and 94.6%; the viability, T/C (compound 0.316 µM) was 106% and 96.2% and 105%; the viability, T/C (compound 1 µM) is 94% and 100% and 99%; the viability, T/C (compound 3.16 µM) is 92.6% and 84.1% and 88.5%; the viability, T/C (compound 10 µM) is 49.3% and 50% and 43.6%. The pIC50 (curve of compound) was 5.01 and < 5.00 and 5.07.
`Nc1ccn(C2OC(CO)C(O)C2(F)F)c(=O)n1` (stereo not given): the viability, T/C (compound 0.0316 µM) was 73.4% and 61.2% and 61%; the viability, T/C (compound 0.1 µM) is 37.7% and 47.8% and 35.1%; the viability, T/C (compound 0.316 µM) was 42.1% and 40.7% and 40.9%; the viability, T/C (compound 1 µM) was 40.9% and 50.7% and 30.8%; the viability, T/C (compound 3.16 µM) is 37.9% and 48.4% and 41.9%; the viability, T/C (compound 10 µM) is 41.2% and 42.5% and 33.8%. The pIC50 (curve of compound) is 7.15 and 7.10 and 7.28.
Turning to `CNCc1ccc(-c2[nH]c3cc(F)cc4c3c2CCNC4=O)cc1`, the viability, T/C (compound 0.0316 µM) is 117% and 108% and 100%; the viability, T/C (compound 0.1 µM) was 95.8% and 94.7% and 99.7%; the viability, T/C (compound 0.316 µM) was 113% and 105% and 97.2%; the viability, T/C (compound 1 µM) is 109% and 96.3% and 92.8%; the viability, T/C (compound 3.16 µM) is 111% and 113% and 110%; the viability, T/C (compound 10 µM) was 119% and 107% and 109%. Moreover, where the note is “curve of compound”, the pIC50 is less than 5.00.
On to `O=C(Nc1ccc(O)c(NS(=O)(=O)c2ccc(F)cc2)c1)c1ccc(-c2ccccc2)cc1`, for which the viability, T/C runs as follows: (compound 0.0316 µM) 93.4% and 116% (2×); (compound 0.1 µM) 99.8% and 93% and 108%; (compound 0.316 µM) 110% and 99.2% and 96.8%; (compound 1 µM) 91.6% and 92.6% and 111%; (compound 3.16 µM) 111% and 88.9% and 86.7%; (compound 10 µM) 52% and 54.8% and 46.6%. The pIC50 (curve of compound) is < 5.00 and 5.04.

These data come from PubChem BioAssay AID1963849 (Molecular Pharmacology Branch, DTP, NCI, 2024).
